Laboratory results reported in patent US20240116947A1, “PYRIDO OXAZINE DERIVATIVES AS ALK5 INHIBITORS” (CHIESI FARMACEUTICI S.P.A., priority 2020, published 2024).

target: human ALK5 (Homo sapiens (Human), UniProt P36897); assay: ADP-GLO Kinases assay, inhibition of ALK5 enzymatic activity; assay type: biochemical; settings: Table 4; potency bins; purified recombinant human ALK5, ADP-Glo, 25° C.; read-out: ALK5 IC50
Protocol: The enzymatic activity of compounds of the present invention was monitored measuring the formation of ADP using the ADP-GLO Kinases assay. Following the incubation of the purified enzyme, a substrate and ATP, the produced ADP was converted into ATP, which in turn was converted into light by Ultra-Glo Luciferase. The luminescent signal positively correlated with ADP amount and kinase activity. Briefly, the kinase reaction was performed by incubating 2.6 nM of the purified, commercially available human ALK5 (recombinant TGF β1 N-term GST-tagged, 80-end), a final concentration of TGFβ1 peptide 94.5 μM (Promega, T36-58) and ultra-pure ATP (Promega V915B). […] All reactions/incubations were performed at 25° C. Compound and ALK5 kinase were mixed and incubated for 15 mins. Reactions were initiated by addition of ATP at a final concentration in the assay of 0.83 μM. After an incubation of 150 min, the reaction was stopped, and ADP production detected with ADP-Glo kit according to manufacturer's indications. The assay was performed in 384-well format and was validated using a selection of reference compounds that was tested in 11 point concentration-response curve.

Sequence of human ALK5 (P36897 80-503 limits assumed): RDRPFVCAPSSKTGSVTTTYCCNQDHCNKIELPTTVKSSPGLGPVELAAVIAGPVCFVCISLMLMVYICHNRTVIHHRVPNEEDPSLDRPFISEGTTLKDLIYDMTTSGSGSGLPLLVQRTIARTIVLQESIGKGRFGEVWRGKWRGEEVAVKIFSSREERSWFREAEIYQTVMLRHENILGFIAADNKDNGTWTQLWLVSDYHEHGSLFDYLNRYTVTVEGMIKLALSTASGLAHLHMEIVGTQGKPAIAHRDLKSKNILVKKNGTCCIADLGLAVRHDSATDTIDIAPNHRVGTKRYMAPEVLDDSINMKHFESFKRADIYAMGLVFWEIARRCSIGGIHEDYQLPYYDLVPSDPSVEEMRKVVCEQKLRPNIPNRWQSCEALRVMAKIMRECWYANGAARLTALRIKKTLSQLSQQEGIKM

`CN1CCN(CCNC(=O)Nc2cc(N3CCOc4cnc(-c5cc(Cl)ccc5F)cc43)ccn2)CC1` [Example 55, 1-(4-(7-(5-chloro-2-fluorophenyl)-2,3-dihydro-1H-pyrido[3,4-b][1,4]oxazin-1-yl)pyridin-2-yl)-3-(2-(4-methylpiperazin-1-yl)ethyl)urea] and `CC(C)c1ccc(F)c(-c2cc3c(cn2)OCCN3c2ccnc(NC(=O)CCN3CCN(C)CC3)c2)c1` [Example 34, N-(4-{7-[2-fluoro-5-(propan-2-yl)phenyl]-1H,2H,3H-pyrido[3,4-b][1,4]oxazin-1-yl}pyridin-2-yl)-3-(4-methylpiperazin-1-yl)propanamide] cannot be ordered by IC50: < 1 nM for the first, < 1 nM for the second.

Compared with `CN1CCN(CCC(=O)Nc2cc(N3CCOc4c3cc(-c3cc(Cl)ccc3F)nc4C(=O)O)ccn2)CC1` [Example 44, 7-(5-chloro-2-fluorophenyl)-1-{2-[3-(4-methylpiperazin-1-yl)propanamido]pyridin-4-yl}-1H,2H,3H-pyrido[3,4-b][1,4]oxazine-5-carboxylic acid], `CN1CCN(CCC(=O)Nc2cc(N3CCOc4c3cc(-c3cc(Cl)ccc3F)nc4N)ccn2)CC1` [Example 51, N-{4-[5-amino-7-(5-chloro-2-fluorophenyl)-1H,2H,3H-pyrido[3,4-b][1,4]oxazin-1-yl]pyridin-2-yl}-3-(4-methylpiperazin-1-yl)propanamide] is lower in IC50: 1 to 5 nM for the first, < 1 nM for the second.

`Nc1cc(N2CCOc3cnc(-c4cc(F)ccc4F)cc32)ccn1` [Example 4, 4-[7-(2,5-difluorophenyl)-1H,2H,3H-pyrido[3,4-b][1,4]oxazin-1-yl]pyridin-2-amine] and `Cc1ccc(F)c(-c2cc3c(cn2)OCCN3c2ccnc(N)c2)c1` [Example 11, 4-[7-(2-fluoro-5-methylphenyl)-1H,2H,3H-pyrido[3,4-b][1,4]oxazin-1-yl]pyridin-2-amine] fall in the same range of IC50: 5 to 10 nM for the first, 5 to 10 nM for the second.

`CS(=O)(=O)CCNCCC(=O)Nc1cc(N2CCOc3cnc(-c4cc(Cl)ccc4F)cc32)ccn1` [Example 26, N-{4-[7-(5-chloro-2-fluorophenyl)-1H,2H,3H-pyrido[3,4-b][1,4]oxazin-1-yl]pyridin-2-yl}-3-[(2-methanesulfonylethyl)amino] propanamide] and `CS(=O)(=O)NCCC(=O)Nc1cc(N2CCOc3cnc(-c4cc(Cl)ccc4F)cc32)ccn1` [Example 24, N-{4-[7-(5-chloro-2-fluorophenyl)-1H,2H,3H-pyrido[3,4-b][1,4]oxazin-1-yl]pyridin-2-yl}-3-methanesulfonamidopropanamide] cannot be ordered by IC50: < 1 nM for the first, < 1 nM for the second.

`CN1CC2CC1CN2CC(=O)Nc1cc(N2CCOc3cnc(-c4cc(Cl)ccc4F)cc32)ccn1` (centres unmarked) [Example 52, N-{4-[7-(5-chloro-2-fluorophenyl)-1H,2H,3H-pyrido[3,4-b][1,4]oxazin-1-yl]pyridin-2-yl}-2-{5-methyl-2,5-diazabicyclo[2.2.1]heptan-2-yl}acetamide] and `CN1CCC(CCC(=O)Nc2cc(N3CCOc4cnc(-c5cc(Cl)ccc5F)cc43)ccn2)CC1` [Example 32, N-{4-[7-(5-chloro-2-fluorophenyl)-1H,2H,3H-pyrido[3,4-b][1,4]oxazin-1-yl]pyridin-2-yl}-3-(1-methylpiperidin-4-yl)propanamide] cannot be ordered by IC50: < 1 nM for the first, < 1 nM for the second.

`CN1CCC(CCC(=O)Nc2cc(N3CCOc4cnc(-c5nc(Cl)ccc5F)cc43)ccn2)CC1` [Example 39, N-{4-[7-(6-chloro-3-fluoropyridin-2-yl)-1H,2H,3H-pyrido[3,4-b][1,4]oxazin-1-yl]pyridin-2-yl}-3-(1-methylpiperidin-4-yl)propanamide] and `CN1CCC(CCC(=O)Nc2cc(N3CCOc4cnc(-c5cc(Cl)ncc5F)cc43)ccn2)CC1` [Example 41, N-{4-[7-(2-chloro-5-fluoropyridin-4-yl)-1H,2H,3H-pyrido[3,4-b][1,4]oxazin-1-yl]pyridin-2-yl}-3-(1-methylpiperidin-4-yl)propanamide] cannot be ordered by IC50: < 1 nM for the first, < 1 nM for the second.

First: CC(C)c1ccc(F)c(-c2cc3c(cn2)OCCN3c2ccnc(N)c2)c1 [Example 13, 4-{7-[2-fluoro-5-(propan-2-yl)phenyl]-1H,2H,3H-pyrido[3,4-b][1,4]oxazin-1-yl}pyridin-2-amine]
Second: Nc1cc(N2CCOc3cnc(-c4nc(Cl)ccc4F)cc32)ccn1 [Example 7, 4-[7-(6-Chloro-3-fluoropyridin-2-yl)-1H,2H,3H-pyrido[3,4-b][1,4]oxazin-1-yl]pyridin-2-amine]
The IC50 of the first is lower: 1 to 5 nM for the first, 5 to 10 nM for the second. The first is the more potent here.

`CNC(=O)CCN1CCN(CCC(=O)Nc2cc(N3CCOc4cnc(-c5cc(Cl)ccc5F)cc43)ccn2)CC1` [Example 31, 3-{4-[2-({4-[7-(5-chloro-2-fluorophenyl)-1H,2H,3H-pyrido[3,4-b][1,4]oxazin-1-yl]pyridin-2-yl}carbamoyl)ethyl]piperazin-1-yl}-N-methylpropanamide] and `NC(=O)CCN1CCN(CCC(=O)Nc2cc(N3CCOc4cnc(-c5cc(Cl)ccc5F)cc43)ccn2)CC1` [Example 37, 3-[4-(2-carbamoylethyl)piperazin-1-yl]-N-{4-[7-(5-chloro-2-fluorophenyl)-1H,2H,3H-pyrido[3,4-b][1,4]oxazin-1-yl]pyridin-2-yl}propanamide] cannot be ordered by IC50: < 1 nM for the first, < 1 nM for the second.

First: Fc1ccc(Cl)cc1-c1cc2c(cn1)OCCN2c1ccncc1 [Example 1, 4-[7-(5-chloro-2-fluorophenyl)-1H,2H,3H-pyrido[3,4-b][1,4]oxazin-1-yl]pyridine]
Second: CN(C)CCC(=O)Nc1cc(N2CCOc3cnc(-c4cc(Cl)ccc4F)cc32)ccn1 [Example 9, N-{4-[7-(5-chloro-2-fluorophenyl)-1H,2H,3H-pyrido[3,4-b][1,4]oxazin-1-yl]pyridin-2-yl}-3-(dimethylamino)propanamide]
The IC50 of the first is higher: 5 to 10 nM for the first, < 1 nM for the second.

`COC(=O)CN(C)CCC(=O)Nc1cc(N2CCOc3cnc(-c4cc(Cl)ccc4F)cc32)ccn1` [Example 23, methyl 2-{[2-({4-[7-(5-chloro-2-fluorophenyl)-1H,2H,3H-pyrido[3,4-b][1,4]oxazin-1-yl]pyridin-2-yl}carbamoyl)ethyl](methyl)amino} acetate] and `CN(CCO)CCC(=O)Nc1cc(N2CCOc3cnc(-c4cc(Cl)ccc4F)cc32)ccn1` [Example 20, N-{4-[7-(5-chloro-2-fluorophenyl)-1H,2H,3H-pyrido[3,4-b][1,4]oxazin-1-yl]pyridin-2-yl}-3-[(2-hydroxyethyl)(methyl)amino] propanamide] cannot be ordered by IC50: < 1 nM for the first, < 1 nM for the second.

`CN1CCN(CCC(=O)Nc2cc(N3CCOc4cnc(-c5cc(Cl)ncc5F)cc43)ccn2)CC1` [Example 42, N-{4-[7-(2-chloro-5-fluoropyridin-4-yl)-1H,2H,3H-pyrido[3,4-b][1,4]oxazin-1-yl]pyridin-2-yl}-3-(4-methylpiperazin-1-yl)propanamide] and `CN1CCN(CCC(=O)Nc2cc(N3CCOc4cnc(-c5cc(Cl)ccc5F)cc43)ccn2)C(=O)C1` [Example 25, N-{4-[7-(5-chloro-2-fluorophenyl)-1H,2H,3H-pyrido[3,4-b][1,4]oxazin-1-yl]pyridin-2-yl}-3-(4-methyl-2-oxopiperazin-1-yl)propanamide] cannot be ordered by IC50: < 1 nM for the first, < 1 nM for the second.

`CN1CC2(C1)CN(CC(=O)Nc1cc(N3CCOc4cnc(-c5cc(Cl)ccc5F)cc43)ccn1)CCO2` [Example 54, N-{4-[7-(5-chloro-2-fluorophenyl)-1H,2H,3H-pyrido[3,4-b][1,4]oxazin-1-yl]pyridin-2-yl}-2-{2-methyl-5-oxa-2,8-diazaspiro[3.5]nonan-8-yl}acetamide] and `CN(CCC(=O)Nc1cc(N2CCOc3cnc(-c4cc(Cl)ccc4F)cc32)ccn1)C1COC1` [Example 19, N-{4-[7-(5-chloro-2-fluorophenyl)-1H,2H,3H-pyrido[3,4-b][1,4]oxazin-1-yl]pyridin-2-yl}-3-[methyl(oxetan-3-yl)amino]propanamide] cannot be ordered by IC50: < 1 nM for the first, < 1 nM for the second.

`O=C(CCN1CCN(CCN(CCO)CCO)CC1)Nc1cc(N2CCOc3cnc(-c4cc(Cl)ccc4F)cc32)ccn1` [Example 36, 3-(4-{2-[bis(2-hydroxyethyl)amino]ethyl}piperazin-1-yl)-N-{4-[7-(5-chloro-2-fluorophenyl)-1H,2H,3H-pyrido[3,4-b][1,4]oxazin-1-yl]pyridin-2-yl}propanamide] and `COC(=O)CC1CN(CCC(=O)Nc2cc(N3CCOc4cnc(-c5cc(Cl)ccc5F)cc43)ccn2)CCN1` (centres unmarked) [Example 48, Methyl 2-{4-[2-({4-[7-(5-chloro-2-fluorophenyl)-1H,2H,3H-pyrido[3,4-b][1,4]oxazin-1-yl]pyridin-2-yl}carbamoyl)ethyl]piperazin-2-yl}acetate] cannot be ordered by IC50: < 1 nM for the first, < 1 nM for the second.

First: CN(CCNS(C)(=O)=O)CCC(=O)Nc1cc(N2CCOc3cnc(-c4cc(Cl)ccc4F)cc32)ccn1 [Example 29, N-{4-[7-(5-chloro-2-fluorophenyl)-1H,2H,3H-pyrido[3,4-b][1,4]oxazin-1-yl]pyridin-2-yl}-3-[(2-methanesulfonamidoethyl)(methyl)amino]propanamide]
Second: CN(CCC(=O)Nc1cc(N2CCOc3cnc(-c4cc(Cl)ccc4F)cc32)ccn1)CCS(C)(=O)=O [Example 27, N-{4-[7-(5-chloro-2-fluorophenyl)-1H,2H,3H-pyrido[3,4-b][1,4]oxazin-1-yl]pyridin-2-yl}-3-[(2-methanesulfonylethyl)(methyl)amino]propanamide]
The IC50 of the first is lower: < 1 nM for the first, 1 to 5 nM for the second. The first is the more potent here.

`Nc1cc(N2CCOc3cnc(-c4cccc(Cl)c4)cc32)ccn1` [Example 5, 4-[7-(3-chlorophenyl)-1H,2H,3H-pyrido[3,4-b][1,4]oxazin-1-yl]pyridin-2-amine] gave an IC50 of 5 to 10 nM.
